Test results taken from US9302967B2, “Substituted cathechols as inhibitors of IL-4 and IL-5 for the treatment of bronchial asthma” (Council of Scientific & Industrial Research, priority 2011, dated 2016).
Read-outs that look alike come from different tables or passages of the source.

Legend:
lung inflammation = assay: Histological analysis of lung inflammation (H&E), OVA mouse model; assay type: in vivo, BALB/c mice
Method: Mice were sensitized with 0.2 ml PBS containing 50 μg ovalbumin (OVA) (Sigma, USA) and 4 mg aluminum hydroxide in saline intraperitonially (i.p.) on days 0, 7 and 14 as shown in FIG. 1. Sham group mice were sensitized with only alum dissolved in PBS. From day 18 to 27, mice were exposed to aerosol of OVA (3%) inhalation 25 minutes daily in a Plexiglas chamber (20×20×10 cm^3). The aerosol was generated by a nebulizer (OMRON CX model) with an airflow rate of 9 L/minute. Sham group mice were challenged with PBS alone.
Compound 1 of formula I was dissolved in 50% ethanol. So 50% ethanol was used as a vehicle. Group I was alum sensitized, saline challenged and treated with vehicle (SHAM/SAL/VEH), group II was OVA sensitized, OVA challenged and treated with 50% ethanol as vehicle (OVA/OVA/VEH), group III, IV, V, VI were OVA sensitized, OVA challenged and treated with 0.05, 0.1, 5 and 10 mg/kg compound 1 of formula I. Drug was given in the volume of 10 μl orally twice per day. Confirmatory experiments were done with two concentrations of compound 1 of formula I (5 and 10 mg/kg twice a day), and these findings were compared with parallel group of mice which were OVA-sensitized, -OVA challenged and treated orally once a day with 0.75 mg/kg Dexamethasone (OVA/OVA/DEX).
The excised lung portion was fixed in 10% buffered formalin. […]

[1] = mouse, in vivo
Method: (§1) Earlier, LD50 of ICB 14 C6 was derived from in vitro cytotoxicity assay by NRUmethod in 3T3 cells. […] For 90d sub-chronic toxicity study the highest dose selected was one-fourth of the limit dose. Four different doses of ICB14 C6 (47, 23, 12 and 0 [vehicle] mg/kg body weight) were prepared in ground nut oil daily for 5 days a week for 90d.
Compound 1 of formula I was administered by oral gavage in water using blunt ended steel canula.
On each working day, all mice were inspected and observations recorded. All the mice were weighed weekly.
From the day of administering the drug, 30 min cage side observation of the animals were performed every day (5 days a week) till the day of sacrifice. No signs and symptoms of restlessness, perinasal wetness and rapid rate of respiration were observed post administration. […] On the 12th week we found the mouse in a shrunken state as it was kept in the deep freezer.

[2] = mouse, in vivo; remark: listed apart in the source
Method: as §1
Blood samples were taken from the retro-orbital sinus on day 91 for hematological and clinical chemistry analyses. Clinical analysis included serum creatinine, serum gammaGT, serum uric acid, serum glucose, serum protein, serum bilirubin, serum GOT/AST and serum GPT/ALT. Hematology including white blood cell count was analyzed with the help of Automatic Hematology Analyzer (Medonic).
The blood left after the hematological studies were allowed to clot for 2 h and serum separated by centrifugation at 3000 rpm for 5 min and subsequently used for clinical biochemistry using kits from Spinreact S.A. (Girona, Spain). Procedural details given in the technical bulletin were followed for the measurement of different serum parameters.

COX-2 = molecular target: T1, COX-2 (Homo sapiens, UniProt P35354); conditions: cited from earlier work
T1 sequence (P35354 18-604): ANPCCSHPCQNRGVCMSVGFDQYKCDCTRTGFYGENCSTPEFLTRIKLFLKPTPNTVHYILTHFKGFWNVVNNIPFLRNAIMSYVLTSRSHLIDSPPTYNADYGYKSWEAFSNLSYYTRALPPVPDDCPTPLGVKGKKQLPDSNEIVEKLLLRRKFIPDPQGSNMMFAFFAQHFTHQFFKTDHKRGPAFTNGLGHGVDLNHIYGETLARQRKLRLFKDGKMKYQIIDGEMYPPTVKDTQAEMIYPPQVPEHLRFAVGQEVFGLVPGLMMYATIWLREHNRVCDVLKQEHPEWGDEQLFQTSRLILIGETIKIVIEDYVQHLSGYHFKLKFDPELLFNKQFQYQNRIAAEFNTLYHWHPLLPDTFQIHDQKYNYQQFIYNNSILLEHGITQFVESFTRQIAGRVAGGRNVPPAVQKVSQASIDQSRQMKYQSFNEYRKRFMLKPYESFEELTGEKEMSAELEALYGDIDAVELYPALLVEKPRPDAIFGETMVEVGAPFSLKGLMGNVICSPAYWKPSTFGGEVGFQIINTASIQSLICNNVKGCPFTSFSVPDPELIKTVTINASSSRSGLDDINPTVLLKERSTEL

NF-κB pathway = conditions: lipopolysaccharide (LPS)-induced macrophages; cited from earlier work

## C=CCc1ccc(O)c(O)c1 [Compound 1, 4-allyl-benzene-1,2-diol]
Lung inflammation; 5 mg/kg
  lung inflammation (H&E): mild reduction of inflammation
Lung inflammation; 10 mg/kg
  lung inflammation (H&E): a significant reduction in both peribronchial and perivascular inflammation
[1]
  cage side observation: All the animals appeared normal
  feed and water consumption: comparable to sham controls
  necropsy findings in vital organs: no gross or microscopic lesion
[1]; 47 mg/kg, 90 d
  mortality: on the 11th weekend it died
[2]
  Activities of AST, ALT and gammaGT enzymes vs normal range: within the normal range
[2]; 12 mg/kg
  Bilirubin: 0.91 ± 0.47 mg/dL
  Creatinine: 1.03 ± 0.48 mg/dL
  GOT/AST: 12.25 ± 2.18 U/L
  GPT/ALT: 8.56 ± 3.79 U/L
  Glucose: 79.89 ± 22.82 mg/dL
  LDH: 175.3 ± 18 U/L
  Total protein: 8.63 ± 1.81 g/dL
  Uric acid: 6.05 ± 3.9 mg/dL
  gammaGT: 12.73 ± 6.74 U/L
[2]; 23 mg/kg
  Bilirubin: 0.37 ± 012 mg/dL
  Creatinine: 1.10 ± 0.65 mg/dL
  GOT/AST: 13.56 ± 6.88 U/L
  GPT/ALT: 12.84 ± 7.9 U/L
  Glucose: 61.66 ± 13.08 mg/dL
  LDH: 198.6 ± 27 U/L
  Total protein: 6.52 ± 2.61 g/dL
  Uric acid: 7.15 ± 0.62 mg/dL
  gammaGT: 15.29 ± 5.38 U/L
[2]; 47 mg/kg
  Bilirubin: 0.54 ± 0.39 mg/dL
  Creatinine: 1.36 ± 0.56 mg/dL
  GOT/AST: 5.30 ± 1.55 U/L
  GPT/ALT: 5.71 ± 9.89 U/L
  Glucose: 86.42 ± 6.39 mg/dL
  LDH: 210.5 ± 25 U/L
  Total protein: 7.78 ± 1.37 g/dL
  Uric acid: 5.59 ± 1.26 mg/dL
  gammaGT: 15.66 ± 2.63 U/L
COX-2
  COX-2 inhibition: potent COX-1/COX-2 inhibitor
NF-κB pathway
  NF-κB pathway: inhibited NF-κB pathway
